Data from article PMC8112869, “Therapeutic inhibition of keratinocyte TRPV3 sensory channel by local anesthetic dyclonine” (eLife, 2021).

Molecular target: T1, TRPV3 (Mus musculus, UniProt Q8K424)
T1 construct: expressed in transfected cells; host or cells: HEK 293T
T1 sequence (Q8K424 1-791): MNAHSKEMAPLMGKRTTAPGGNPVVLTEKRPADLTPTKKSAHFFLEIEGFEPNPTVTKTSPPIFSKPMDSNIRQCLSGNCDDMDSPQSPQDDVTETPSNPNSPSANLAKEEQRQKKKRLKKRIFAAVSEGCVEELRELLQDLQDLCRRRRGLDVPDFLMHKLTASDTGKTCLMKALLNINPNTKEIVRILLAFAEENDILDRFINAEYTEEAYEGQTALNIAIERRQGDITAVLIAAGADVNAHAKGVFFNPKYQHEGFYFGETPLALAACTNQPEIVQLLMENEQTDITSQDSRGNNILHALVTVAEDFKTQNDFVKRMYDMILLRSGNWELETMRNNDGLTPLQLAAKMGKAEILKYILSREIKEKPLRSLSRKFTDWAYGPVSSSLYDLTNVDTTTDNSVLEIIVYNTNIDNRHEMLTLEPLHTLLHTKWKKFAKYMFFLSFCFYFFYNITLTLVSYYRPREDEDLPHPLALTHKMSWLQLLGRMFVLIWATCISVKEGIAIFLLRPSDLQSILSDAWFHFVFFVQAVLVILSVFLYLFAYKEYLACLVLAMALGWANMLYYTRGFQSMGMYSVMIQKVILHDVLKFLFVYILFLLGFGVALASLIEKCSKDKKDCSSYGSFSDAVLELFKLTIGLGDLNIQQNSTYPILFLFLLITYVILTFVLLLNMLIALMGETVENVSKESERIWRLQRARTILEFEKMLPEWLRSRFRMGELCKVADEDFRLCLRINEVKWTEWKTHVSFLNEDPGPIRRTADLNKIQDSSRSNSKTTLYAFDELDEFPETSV
Assay: Whole-cell recording of carvacrol-evoked TRPV3 currents in HEK 293T cells
Type: cell-based
Description: Conventional whole-cell and excised patch-clamp recording methods were used. For the recombinant expressing system, green fluorescent EGFP was used as a surface marker for gene expression. Recording pipettes were pulled from borosilicate glass capillaries (World Precision Instruments) and fire-polished to a resistance between 2 and 4 MΩ when filled with internal solution containing (in mM) 140 CsCl, 2.0 MgCl2, 5 EGTA, and 10 HEPES, pH 7.4 (adjusted with CsOH). Bath solution contained (in mM): 140 NaCl, 5 KCl, 3 EGTA, and 10 HEPES, pH 7.4 adjusted with NaOH. For recordings in keratinocytes, the bath saline consisted of (in mM) 140 NaCl, 5 KCl, 2 MgCl2, 2 CaCl2, 10 glucoses, and 10 HEPES, pH 7.4 adjusted with NaOH, and the pipette solution contained (in mM) 140 CsCl, 5 EGTA, and 10 HEPES, pH 7.3 adjusted with CsOH. […] For a subset of recordings, currents were amplified using an Axopatch 200B amplifier (Molecular Devices, Sunnyvale, CA) and recorded through a BNC-2090/MIO acquisition system (National Instruments, Austin, TX) using QStudio developed by Dr. Feng Qin at State University of New York at Buffalo. […] As determined by the conductance tests, the solution around a patch under study was fully controlled by the application of a flow rate of 100 μl/min or greater. […]

**Q.** Which results are given for CCCCOc1ccc(C(=O)CCN2CCCCC2)cc1 [dyclonine]?
**A.** IC50 (500 μM carvacrol, after sensitization by 300 μM 2-APB, –60 mV, read-out: IC50 for inhibition of carvacrol-evoked TRPV3 currents): 3.5 ± 0.34 µM; Hill coefficient nH (carvacrol-evoked): 2.1 ± 0.41
